Source: publication PMC9445589, “Apolipoprotein E mimetic peptide COG1410 combats pandrug-resistant Acinetobacter baumannii” (Frontiers in Microbiology, 2022)
≈ marks a conversion by molar mass, not a printed value. Non-standard residues stand in square brackets, D forms with d. Residues, ends and D or L forms follow the SMILES beside them. Aib = CC(C)(N)C(=O)O

Key:
A. baumannii YQ4 [1] = assay: antibacterial activity (LC99.9) in PBS or 50% pooled human plasma; format: cell-based, Acinetobacter baumannii; conditions: 2 h, 37°C
Procedure: The antibacterial activity of COG1410 in plasma was performed as described previously (De Breij et al., [2018]). Briefly, the log-phase culture of A. baumannii YQ4 was exposed to different concentrations of COG1410 in PBS or PBS supplemented with 50% (v/v) pooled human plasma. After incubation with shaking at 200 rpm at 37°C for 2 h, the CFU was counted on LB agar. LC99.9 indicates the lowest peptide concentration that kills ≥99.9% of bacteria. The experiments were conducted independently in triplicate.

[2] = tested on: vancomycin-resistant Enterococcus faecium 11–47; conditions: vancomycin-resistant 11–47
[3] = tested on: clinically collected A. baumannii strains
Procedure: (§1) Strain stocks were maintained at −80°C in 10% glycerol. Bacteria were streaked on fresh plates before each experiment. Most of them were cultured in LB broth containing 10 g/L NaCl at 37°C, except for Mycobacteria in 7H9 broth and Enterococcus in BHI broth. Porphyromonas gingivalis was cultured in BHI broth supplemented with 1 μg/ml vitamin k1, 5 μg/ml hemin, and 5 mg/ml L-cysteine hydrochloride at 37°C in the anaerobic chamber. The minimal inhibitory concentrations (MICs) of antimicrobials were determined using the microdilution method in the corresponding broth.
TAble S2. Determination of bactericidal effect of COG1410 against clinically collected A. baumannii strains. MIC was measured in LB broth by microdilution method.

[4] = tested on: MDR Mycobacterium tuberculosis 6–45; conditions: microdilution method, 7H9 broth
[5] = tested on: Acinetobacter baumannii ATCC19606
A. baumannii YQ4 [6] = assay: ATP leak assay; format: cell-based, Acinetobacter baumannii; conditions: 16 μg/ml COG1410, 16 μg/ml polymyxin B or 32 μg/ml tigecycline (1× MIC), PBS, 37°C, 30 min
Procedure: ATP leak assay was performed using the Enhanced ATP Assay Kit of Beyotime ([…]) according to the manufacturer's manual. […] The supernatant was harvested and used for the measurement of ATP levels. In total, 100 μl of supernatant was mixed with 100 μl of working solution, and the chemiluminescence was measured by using a Biotek Synergy H1 plate reader. The untreated sample was set as a negative control. The experiments were performed in triplicate.

A. baumannii YQ4 [7] = assay: transmission electron microscopy (TEM) of treated cells; conditions: 1× MIC (16 μg/ml), PBS, 37°C, 30 min
[8] = tested on: Porphyromonas gingivalis ATCC33277
[9] = tested on: pandrug-resistant (PDR) Acinetobacter baumannii YQ4
[10] = tested on: Mycobacterium tuberculosis H37Rv; conditions: microdilution method, 7H9 broth
[11] = tested on: PDR Acinetobacter baumannii YQ4; assay: microbe, parasite or virus in culture; format: cell-based
Procedure: as §1
The pandrug-resistant A. baumannii YQ4 was collected from the clinical laboratory of the second hospital in Nanjing. The complete genome was sequenced by Nanopore, and the data were deposited in the GenBank with accession number CP053033.

[12] = tested on: human red blood cell (RBC); conditions: 1 h
Procedure: The anti-coagulated (citrate) whole blood sample was pelleted by centrifugation at 700 g for 8 min, washed three times with PBS, and suspended in 0.5% (vol/vol) PBS. […] The highest concentration was 512 μg/ml (363 μM). PBS and Triton X-100 (0.1%) were used as negative and positive controls, respectively. The plate was incubated at 37°C for 1 h, followed by centrifugation at 1,000 rpm for 5 min at 4°C. Aliquots of 60 μl of the supernatant from each well were quickly transferred to a new flat-bottom 96-well plate. The optical absorbance at OD414 was measured with a microplate reader (BioTek, synergy H1). The hemolysis percentage was then normalized with respect to the averaged negative (0%) and positive (100%) controls. Three independent experiments were conducted.

[13] = tested on: MDR Citrobacter freundii 7–83; conditions: microdilution method in the corresponding broth
[14] = tested on: Mycobacterium smegmatis MC^2155; conditions: Mycobacterium MC^2155
[15] = tested on: Pseudomonas aeruginosa PAO1; assay: MIC, microdilution method; format: cell-based; conditions: microdilution method in the corresponding broth
Procedure: as §1

[16] = tested on: Staphylococcus aureus ATCC29213; assay: MIC, microdilution method; format: cell-based; conditions: microdilution method in the corresponding broth
Procedure: as §1

[17] = tested on: MDR Klebsiella oxytoca 7–85; conditions: microdilution method in the corresponding broth
A. baumanii YQ4 = assay: induction of resistance through serial passage; conditions: sub-MIC exposure, 55 passages
A. baumannii YQ4 [18] = assay: scanning electron microscopy (SEM) of treated cells; format: cell-based, Acinetobacter baumannii; conditions: 1× MIC (16 μg/ml), PBS, 37°C, 30 min
Procedure: The log-phase culture of A. baumannii YQ4 was prepared as described above, harvested, and washed once with PBS. The pellets were suspended in PBS supplemented with 1 × COG1410 (16 μg/ml) or 1 × polymyxin B (16 μg/ml) and incubated at 37°C for 30 min. The untreated culture was used as a positive control to observe the morphology of the intact cell. […] After washing three times with PBS, the cells were post-fixed in 1% osmium at 4 °C for 1 h. After washing in distilled water for 1 h, the bacteria were dehydrated in the ascending concentrations of ethanol. Finally, these samples were transferred to ThermoFisher Quattro SEM for image collection after tert-butanol freeze-drying and sputter coating.

plasmid pUC18 = assay: DNA-binding assay, gel retardation
Procedure: Gel retardation experiments were conducted as previously described (Yan et al., [2013]). Briefly, 300 ng of the plasmid pUC18 was mixed with different concentrations of COG1410 in 30 μl of buffer (10 mM Tris-HCl and 1 mM EDTA buffer, pH 8.0) and incubated at room temperature for 30 min. The reaction mixtures were mixed with 1 × native loading buffer and subjected to 1.5% agarose gel electrophoresis. The migration of DNA was detected by the fluorescence of GelRed dye.

Work on `CC(=O)N[C@@H](C)C(=O)N[C@@H](CO)C(=O)NC(C)(C)C(=O)N[C@@H](CC(C)C)C(=O)N[C@@H](CCCNC(=N)N)C(=O)N[C@@H](CCCCN)C(=O)N[C@@H](CC(C)C)C(=O)NC(C)(C)C(=O)N[C@@H](CCCCN)C(=O)N[C@@H](CCCNC(=N)N)C(=O)N[C@@H](CC(C)C)C(=O)N[C@@H](CC(C)C)C(N)=O` [COG1410, acetyl-AS-Aib-LRKL-Aib-KRLL-amide] (Ac-AS[Aib]LRKL[Aib]KRLL-NH2) yielded an LC99.9 (A. baumannii YQ4 [1]; PBS with 50% (v/v) pooled human plasma) of 8 µg/mL, an LC99.9 (A. baumannii YQ4 [1]; PBS, lowest concentration that kills ≥99.9% of bacteria) of 2 µg/mL and an MIC [2] of 16 µg/mL (≈ 11.4 µM). The “MICs over 107 clinically collected A. baumannii strains” value ([3]; clinically collected strains) was 16 to 32 µg/mL, the MIC ([3]; strain Ab3-1 (MDR-Ab, hydrothorax and ascite), LB broth) was 32 µg/mL (≈ 22.7 µM) and the MIC [4] was 16 µg/mL (≈ 11.4 µM). For the same compound, the MIC [5] was 16 µg/mL (≈ 11.4 µM), the “ATP leak (extracellular ATP)” value (A. baumannii YQ4 [6]) was “significantly more than untreated control and tigecycline treatment group” and the “cell membrane integrity by TEM” value (A. baumannii YQ4 [7]) was “wrinkled and smaller compared with untreated cells”. For the same compound, the MIC [8] was 32 µg/mL (≈ 22.7 µM), the “minimal bactericidal concentration (MBC)” value [9] was 16 µg/mL (≈ 11.4 µM) and the MIC [10] was 16 µg/mL (≈ 11.4 µM). For the same compound, the MIC ([11]; PDR YQ4) was 11.3 µM, the MIC ([11]; microdilution method, LB broth) was 16 µg/mL and the “EC50, lysis of half of the red blood cells” value [12] was 441 µg/mL. It also gave a hemolysis ([12]; red cells of human, 128 μg/ml) of less than 5%, an MIC [13] of 16 µg/mL (≈ 11.4 µM) and an MIC [14] of 16 µg/mL (≈ 11.4 µM). It also gave an MIC [15] greater than 256 µg/mL, an MIC [16] greater than 256 µg/mL and an MIC [17] greater than 256 µg/mL. The “increase of MIC after serial passage” value (A. baumanii YQ4) was 4 fold, the “cell morphology by SEM” value (A. baumannii YQ4 [18]) was “intact, with little debris observed” and the “electrophoretic mobility of pUC18” value (plasmid pUC18; 1× MIC, 300 ng plasmid, 30 min room temperature, 1.5% agarose) was “only part of them migrated”. For the same compound, the “electrophoretic mobility of pUC18” value (plasmid pUC18; higher concentrations than 1× MIC) was “completely retarded”.
